Assays:
[1] = test system: tail-tip fibroblasts (TTFs); assay: Neural transdifferentiation of TTFs in presence of JAK inhibitor; type: cell-based, mouse; details: JAK inhibitor 1 0.5 μM from day 4 onward
Protocol: For TTF reprogramming, Lentivirus supernatants were produced and harvested as previously described (Takahashi K. et al. Cell 131(5):861-872 (2007)). Briefly, 293T cells (Invitrogen) were plated at 5×10^6 cells per 100 mm dish and incubated overnight in a 37° C. incubator. Cells were transfected with 4 μg pHAGE2-TetOminiCMV-STEMCCA (29) or FUW-M2rtTA (Addgene) along with packaging mix (1 μg psPAX2 and 3 μg pMD2.G) (Addgene) and FuGENE 6 Transfection Reagent (Roche), according to the manufacturer's instructions. The cells were then cultured in a 32° C. degree incubator, after which supernatants were collected at 48 and 72 hours (post-transfection) and filtered through a 0.45 μm filter (Millipore) before use. TTFs were prepared as previously described (Takahashi, K., et al., Cell 126(4):663-676 (2006)). Briefly, tails (only the final third) were cut into small pieces (less than 0.5 cm) and grown on gelatine-coated plates in MEF medium. Cells that migrated out of the tissue were transferred into new dish and used after one more passage (p3). After two rounds of transduction with STEMCCA and rtTA expressing virus, cells were plated on Geltrex-coated dishes at 2×10^4 cells/cm^2 and reprogrammed as described above. JAK inhibitor 1 (Calbiochem) was added from day 4 onward at 0.5 μM during TTF transdifferentiation. […]

R1 ES cells = assay: Serum-free monolayer cardiac differentiation of ES cells, beating colonies; type: cell-based, mouse; details: early treatment window
Protocol: Having identified the first serum-free monolayer condition for cardiac differentiation of ES cells, we sought to test its efficacy as a platform to discover regulators of cardiomyogenesis. A collection of approximately 200 small molecules and growth factors reported to be influential in developmental processes were assembled. R1 ES cells were grown and plated for differentiation on Matrigel in 24-well plates using the media and growth factors described above. The screening collection was then added and removed from each well at specific time points in order to account for different developmental time windows. The collection was screened at days 0-2, 2-5, and 5-7.
Cells are plated at a density of 200,000 cells/well of a 6-well plate in 2.5 ml of ESGM. 6-well plates are coated overnight at 4° C. with 1 ml of Matrigel (BD Bioscience) diluted 50× from stock concentration. 24 hours after plating, or after sufficient colony size was achieved, cells are switched into chemically defined medium (CDM) and treated with 4 uM BIO (Calbiochem) and 20 ng/ml BMP-4 (R&D). CDM contains RPMI 1640, 0.5×N2, 1×B27 (without Vitamin A), 0.5× Glutamax, 0.55 mM beta-mercaptoethanol, 1× non-essential amino acids, 1× nucleosides. At Day 2, medium is changed, and again CDM containing 4 uM BIO with 20 ng/ml BMP-4 is added to the cells. At Day 5, cells are washed once with PBS and medium is changed to CDM containing 100 ng/ml Dkk-1 (R&D). At Day 7, medium is changed, and again CDM containing 100 ng/ml Dkk-1 is added to the cells. At Day 10, cells are trypsinized (0.05% trypsin) (Approximately 5 minutes at 37° C., or until cells begin to detach) and replated onto gelatin coated 6-well plates in CDM with no additional growth factors. By this time, the cells will have formed tight colonies that will be difficult to disrupt (Supplementary FIG. 2b). […] The trypsin is used primarily to detach the cells rather than to dissociate them to a single cell suspension. It is preferable for the colonies to remain intact. The trypsin is briefly quenched with MEF media, cells are centrifuged, and resuspended in CDM for plating. Medium is refreshed as needed to remove dead cells and debris (every 1 to 2 days).

Brachyury-EGFP ES cell = assay: FACS analysis of mesodermal markers (Brachyury-GFP, Flk-1); type: cell-based, mouse; details: treated day 0-2, harvested day 4.5
Protocol: To ascertain what role calcium and cAMP might be playing in this early stage of cardiac differentiation, FACS was carried out using two markers involved in mesodermal fates. Specifically, a Brachyury-EGFP ES cell (a gift from the Keller lab) was used to identify cells progressing to a primitive streak type population. Further, cells were stained using a Flk-1 antibody to further delineate axial location of the primitive streak type cells. Briefly, cells were treated with small molecules for day 0-2, and harvested at day 4.5 for analysis.
Cells were harvested into a single cell suspension by treatment with 0.05% trypsin, quenched with serum containing medium, and resuspended in FACS buffer: lx PBS (Ca/Mg^2+ free), 1 mM EDTA, 25 mM HEPES pH 7.0, 1% Fetal Bovine Serum. Cells were then filtered with […], and stored at 4° C. until analysis.

Wnt/β-catenin pathway = details: cited from earlier work

**Q.** What does the source list for `CC(C)(C)c1nc2c3ccc(F)cc3c3c(=O)[nH]ccc3c2[nH]1` [JAK inhibitor1]?
**A.** Pax6 expression of colonies [1]: all remaining colonies homogeneously expressed Pax6; decrease in number of colonies [1]: around 30%

**Q.** What does the source list for `CC(C)NCC(O)COc1cccc2ccccc12` (centres unmarked) [propranolol]?
**A.** cardiac differentiation / percentage of beating colonies (R1 ES cells): greatly decreased cardiac potential; Flk-1 positive portion of GFP+ cells (Brachyury-EGFP ES cell): decreased

**Q.** For `Cc1ccc2nc(NC(=O)CSc3nc4c(c(=O)n3-c3ccccc3)SCC4)sc2c1` [IWP-2, 2-(3,4,6,7-tetrahydro-4-oxo-3-phenylthieno[3,2-d]pyrimidin-2-ylthio)-N-(6-methylbenzo[d]thiazol-2-yl)acetamide], which IC50 (Wnt/β-catenin pathway) is on record?
**A.** Its IC50 is 27 nM.
